Test systems include SF-268; A498; M14; SW-620; SR; IGROV-1; PC-3; SK-OV-3; NCI-H522; HOP-92; UACC-257; BT-549; SN12C; HCT-116; T47D; SK-MEL-2; K562.
What all share (experiment): inhibition of tumour cell growth, NCI panel, 48 h

SMILES strings stand for the structures.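 In this assay, cells in 96-well plates receive the compound at five concentrations for 48 hours. Endpoints are linearly interpolated between the surrounding concentrations. At the GI50, growth is halved.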 Calls of active or inactive are those of the source. Rule as the data show it: active = GI50 up to about 1.1 µM and inactive = higher.

Turning to `CCCCCCCCCCCCCCCCOCC(O)CO` (stereo not drawn), the GI50 in the assay on SF-268 is 17.1 µM (inactive); in the assay with A498, 19.5 µM (inactive); in the assay on M14, 22.8 µM (inactive); with SW-620, 20.3 µM (inactive); in the assay with SR, 10.3 µM (inactive); in the assay on IGROV-1 it was 16.3 µM (inactive). Besides, the GI50 with PC-3 was 16.5 µM (inactive); in the assay with SK-OV-3 it was 16.6 µM (inactive); in the assay on NCI-H522, 16.8 µM (inactive); with HOP-92, 21 µM (inactive); in the assay on UACC-257 it was 19.1 µM (inactive); in the assay with BT-549, 22.2 µM (inactive). In addition, the GI50 is 19.2 µM (inactive) in the assay with SN12C, 19.4 µM (inactive) with HCT-116, 23.4 µM (inactive) with T47D and 20.6 µM (inactive) in the assay on SK-MEL-2.

Consider `COC(=O)c1ccc(S)c(S(=O)(=O)Nc2nc(N)n[nH]2)c1`, for which the GI50 with A498, with M14, in the assay on SW-620, in the assay on SR, in the assay on IGROV-1 and with PC-3 was > 100 µM (inactive) in each case. In addition, the GI50 in the assay on K562, in the assay on NCI-H522, with HOP-92, in the assay on UACC-257, in the assay with BT-549 and in the assay with SN12C was > 100 µM (inactive) each time. Also, the GI50 in the assay with HCT-116, in the assay on T47D and in the assay on SK-MEL-2 was > 100 µM (inactive) throughout.

For the molecule `O=S(=O)(OI(O)CC(F)(F)F)C(F)(F)F`, the GI50 in the assay on SF-268, with A498, in the assay on M14, in the assay with SW-620, with SR and in the assay on IGROV-1 was > 100 µM (inactive) each time. Moreover, the GI50 in the assay with PC-3, with SK-OV-3, in the assay with K562, in the assay on NCI-H522, with HOP-92 and with UACC-257 was > 100 µM (inactive) each time. Moreover, the GI50 in the assay with BT-549, in the assay on SN12C, in the assay on HCT-116, in the assay with T47D and in the assay with SK-MEL-2 was > 100 µM (inactive) throughout.

For the molecule `Cc1oc(N)c(S(=O)(=O)c2cc3ccccc3[n+]([O-])c2N)c1C`, the GI50 is > 100 µM (inactive) with SF-268; > 100 µM (inactive) in the assay on A498; > 100 µM (inactive) in the assay on M14; > 100 µM (inactive) with SW-620; < 0.01 µM (active) in the assay on SR; > 100 µM (inactive) in the assay with IGROV-1. Moreover, the GI50 in the assay with PC-3, in the assay with SK-OV-3, in the assay on NCI-H522, in the assay on HOP-92, in the assay on UACC-257 and with BT-549 was > 100 µM (inactive) throughout. Also, the GI50 in the assay on SN12C, in the assay with T47D and in the assay with SK-MEL-2 was > 100 µM (inactive) throughout.

Consider `O=C(NCCNCCCNC(=O)c1cc(-c2ccccc2)nc2ccccc12)c1cccc(OCc2ccccc2)c1OCc1ccccc1`, for which the GI50 in the assay on SF-268 is 1.88 µM (inactive); with A498 it was 1.6 µM (inactive); in the assay on M14 it was 1.65 µM (inactive); in the assay on SW-620, 1.77 µM (inactive); with SR, 0.889 µM (active); in the assay with IGROV-1 it was 1.85 µM (inactive). In addition, the GI50 was 1.67 µM (inactive) in the assay on PC-3; 1.71 µM (inactive) in the assay on SK-OV-3; 1.74 µM (inactive) in the assay with K562; 1.73 µM (inactive) in the assay with NCI-H522; 1.53 µM (inactive) in the assay on HOP-92; 1.83 µM (inactive) in the assay with UACC-257. In addition, the GI50 was 1.72 µM (inactive) in the assay with BT-549, 1.77 µM (inactive) in the assay on SN12C, 1.71 µM (inactive) in the assay on HCT-116 and 2.18 µM (inactive) in the assay with T47D.

Consider `Cc1cc(-n2c(/C=C/c3ccc(Cl)cc3)nc3cc(Cl)ccc3c2=O)on1`, for which the GI50 in the assay with SF-268 is 15.7 µM (inactive); in the assay on A498, 2.31 µM (inactive); with M14, 12.7 µM (inactive); in the assay on SW-620, 48 µM (inactive); in the assay on SR, 0.005 µM (active); in the assay on IGROV-1, 29.6 µM (inactive). Also, the GI50 is > 50 µM (inactive) with PC-3; 14.9 µM (inactive) in the assay on SK-OV-3; > 50 µM (inactive) in the assay on K562; 23.2 µM (inactive) with NCI-H522; 16 µM (inactive) in the assay with HOP-92; > 50 µM (inactive) in the assay with UACC-257. The GI50 in the assay on BT-549 was > 50 µM (inactive); in the assay on SN12C it was 20.5 µM (inactive); with HCT-116, 6.1 µM (inactive); in the assay on T47D it was > 50 µM (inactive).

Take `CC1CCC2(CC1)NC1=C(CC(C)CC1)C1=C2CC(C)CC1` (stereo not drawn): the GI50 is 34 µM (inactive) with A498; 18.5 µM (inactive) in the assay with M14; 18.9 µM (inactive) in the assay on SW-620; 21.8 µM (inactive) with SR; 31.3 µM (inactive) with IGROV-1; 16.1 µM (inactive) in the assay with PC-3. The GI50 in the assay with SK-OV-3 was 38.8 µM (inactive); with K562, 17.2 µM (inactive); with NCI-H522, 19.3 µM (inactive); in the assay with HOP-92 it was 18.3 µM (inactive); in the assay with UACC-257, 25.3 µM (inactive); in the assay on BT-549, 19.1 µM (inactive). Besides, the GI50 in the assay on HCT-116 is 14.8 µM (inactive); in the assay with T47D, 24.3 µM (inactive); with SK-MEL-2 it was 21.8 µM (inactive).

On to `C[C@H](Nc1nc(N)c(N=O)c(=O)n1C)C(=O)O`, for which the GI50 in the assay with SF-268, with A498, in the assay on M14, with SW-620, in the assay on SR and with IGROV-1 was > 10 µM (inactive) in each case. Besides, the GI50 with PC-3, with SK-OV-3, with K562, in the assay with NCI-H522, in the assay with HOP-92 and in the assay on UACC-257 was > 10 µM (inactive) in each case. Further, the GI50 in the assay on BT-549, in the assay on SN12C, in the assay with HCT-116, in the assay with T47D and with SK-MEL-2 was > 10 µM (inactive) in each case.

Regarding `CN(C)c1nc2sc3c(c2c(=O)o1)CCCC3`, the GI50 is 16 µM (inactive) in the assay on A498; 40.1 µM (inactive) in the assay on M14; 54.8 µM (inactive) in the assay with SW-620; 65.2 µM (inactive) in the assay on SR; 72.8 µM (inactive) with IGROV-1; 34.4 µM (inactive) in the assay with PC-3. Besides, the GI50 in the assay on SK-OV-3 was 31.6 µM (inactive); with K562, 32.4 µM (inactive); in the assay on NCI-H522, 25.4 µM (inactive); in the assay on HOP-92 it was 36.9 µM (inactive); with UACC-257, 73.8 µM (inactive); with BT-549 it was 12.3 µM (inactive). Also, the GI50 is 36.9 µM (inactive) in the assay on SN12C, 44.9 µM (inactive) with HCT-116, 26.8 µM (inactive) in the assay on T47D and 25.3 µM (inactive) with SK-MEL-2.

Values taken from ChEMBL document CHEMBL1201862, “PubChem BioAssay data set” (2004).
